# Test results: patent publication US8835425B2, “Use of selective GABA A α5 negative allosteric modulators for the treatment of central nervous system conditions” (Hoffmann-La Roche Inc., priority 2010, dated 2014)
# Read-outs that look alike come from different tables or passages of the source.
# Columns and labels:
# human GABA A α1β2/3γ2 = human GABA A α1β2/3γ2 (Homo sapiens, UniProt P14867+P18507); assay: Two-microelectrode voltage clamp, modulation of GABA EC10 response in Xenopus oocytes, α1β2/3γ2; assay type: cell-based; set-up: expressed in transfected cells; host or cells: Xenopus laevis oocytes; conditions: % change of EC10 GABA response at 3 μM or at 30×Ki if Ki below 0.1 μM
# human GABA A α2β3γ2 = human GABA A α2β3γ2 (Homo sapiens, UniProt P18507+P47869); assay: [3H]flumazenil competition binding, HEK293 cells expressing human α2β3γ2; set-up: expressed in transfected cells; host or cells: HEK293; conditions: for hKi α2/hKi α5: binding selectivity ratio
# Ts65Dn and control mice [1] = assay: Sensorimotor test battery; assay type: in vivo; conditions: 20 mg/kg p.o. chronic; for Auditory startle / Equilibrium aluminium bar / Equilibrium wooden bar / Grip strength / Prehensile reflex / Righting reflex / Traction capacity / Vision: mean score; for effect on sensorimotor abilities: Ts65Dn or control mice
# Experimental: (§1) For mice studies, active pharmaceutical compounds of present invention were formulated in chocolate-milk (Puleva, Barcelona, Spain). Active pharmaceutical compounds of present invention or vehicle were administered p.o. at a dose of 20 mg/kg for six weeks. Their administration was prolonged during the 30 days of the behavioral assessment.
# A battery of sensorimotor tests was performed following the procedure described by Rueda N et al. [Neurosci Leu (2008) 433(1):22-27]. In the visual placing reflex test, cerebellar and vestibular functions were evaluated. […] The response of forepaw extension was scored on a 0-4 scale [4: animal extends the forepaws when placed at the highest height; 3: forepaws extended before touching the surface with vibrissae; 2: forepaws extended after vibrissae touched the surface; 1: forepaws extended after the nose touched the surface; 0: no extension].
# To evaluate auditory sensitivity, the startle response to a sudden auditory stimulus was measured. Mice were placed facing the wall of an unfamiliar cage and the auditory stimulus was generated by clapping together two stainless steel forceps (7 cm long). A score (0-3 points) was assigned based on the magnitude of the response: jumping more than 1 cm (3 points); jumping less than 1 cm (2 points); retracting of the ears (Preyer reflex, 1 point); or no response (0 points).
# The vibrissa placing reflex was analyzed by noting the reflective reaction to touching the vibrissae with a cotton stick. In three consecutive trials, a score of 1 was assigned to animals that touched the stimulated vibrissae with an ipsilateral paw, and 0 if there was no response. Grip strength was assessed by quantifying the resistance to being separated from a lid of aluminum bars (2 mm), when dragged by the tail (0: no resistance, total loss of grip strength; 1: slight; 2: moderate; 3: active; 4: extremely active resistance, normal grip strength).
# In order to evaluate equilibrium, four 20-s trials of balance were performed on an elevated (40 cm high), horizontal (50 cm long) rod. Trials 1 and 2 were performed on a flat wooden rod (9 mm wide); trials 3 and 4 were performed on a cylindrical aluminum rod (1 cm diameter). In each trial, the animals were placed in a marked central zone (10 cm) on the elevated rod. A score of 0 was given if the animal fell within 20 s, 1 if it stayed within the central zone for >20 s, 2 if it left the central zone, and 3 if it reached one of the ends of the bar.
# Prehensile reflex (three 5-s trials) was measured as the ability of the animal to remain suspended by the forepaws by grasping an elevated horizontal wire (2 mm in diameter). The maximum possible score of 3 was achieved when the animal remained suspended by the forepaws in all three trials (one point per trial). Traction capacity was scored at the same time by assessing the number of hind limbs that the animal raised to reach the wire (0: none; 1: one limb; 2: two limbs).
# human GABA A α5β3γ2 = human GABA A α5β3γ2 (Homo sapiens, UniProt P18507+P31644); assay: Two-microelectrode voltage clamp, modulation of GABA EC10 response in Xenopus oocytes, α5β3γ2; assay type: cell-based; set-up: expressed in transfected cells; host or cells: Xenopus laevis oocytes; conditions: % change of submaximal (EC10) response to GABA at 30×Ki
# Experimental: Table 2b. […] Effect at human GABA A α5 receptors: % change of a submaximal (EC10) response to GABA determined at 30×Ki value from the flumazenil binding assay.
# Subtype-selective effects were determined on cloned receptors expressed in Xenopus oocytes. Human recombinant GABA A receptors were expressed in Xenopus laevis oocytes. Current responses were evoked in two-microelectrode voltage-clamp condition by applying an EC10 of GABA before and during the co-application of the test compound. Response amplitudes in the presence of the test compound are expressed as percentage of the amplitudes before drug addition.
# Ts65Dn and control mice [2] = assay: Spatial learning: Morris water maze; assay type: in vivo; conditions: 20 mg/kg p.o. chronic; for Ts65Dn mice performance in MWM acquisition sessions / control mice performance in MWM acquisition sessions: vs vehicle; for latency to reach the platform during cued sessions: in Ts65Dn but not in control mice
# Experimental: as §1
# To evaluate spatial learning the Morris Water Maze was used. The apparatus was a circular tank of 110 cm in diameter, full of water (22-24° C.) made opaque by the addition of powdered milk. Inside the tank, a platform was hidden 1 cm below the water level. Animals were tested at the end of the treatment period in 12 consecutive daily sessions: 8 acquisition sessions (platform submerged), followed by 4 cued sessions (platform visible). All trials were videotaped with a camera located 2 m above the water level. A SMART computerized tracking system (Panlab S. A., Barcelona, Spain) was used to analyze the mouse trajectories, measure escape latency, distance traveled, and swimming speed for each animal in each trial.
# In the acquisition sessions (S1-S8), the platform was hidden 1 cm below the water level. From one daily session to the next, the platform was placed in a different location (E, SW, center, and NW); each position was used once every four consecutive daily sessions. Each of the 8 acquisition and 4 cued sessions (one session per day) consisted of four pairs of trials, 30-45 min apart. For each trial pair, the mice were randomly started from one of four positions (N, S, E, W), which was held constant for both trials. The first trial of a pair was terminated when the mouse located the platform or when 60 s had elapsed; the second trial commenced following a period of 20 s, during which the animal was allowed to stay on the platform. Several fixed cues outside of the maze were constantly visible from the pool.
# During the cued sessions the platform was visible: the water level was 1 cm below the platform, and its position was indicated with a flag. Eight trials were performed during each session, following the same experimental procedure as in the acquisition sessions.
SMILES,Efficacy GABA A α1β2/3γ2 (human GABA A α1β2/3γ2) [%],hKi α2/hKi α5 (human GABA A α2β3γ2),Latency arrival coat hanging (Ts65Dn and control mice [1]; Ts65Dn mice),Latency to fall aluminium bar (Ts65Dn and control mice [1]; Ts65Dn mice),Latency to fall wooden bar (Ts65Dn and control mice [1]; Ts65Dn mice),Number of crossings coat hanging (Ts65Dn and control mice [1]; Ts65Dn mice),Auditory startle (Ts65Dn and control mice [1]; Ts65Dn mice),Equilibrium aluminium bar (Ts65Dn and control mice [1]; Ts65Dn mice),Equilibrium wooden bar (Ts65Dn and control mice [1]; Ts65Dn mice),Grip strength (Ts65Dn and control mice [1]; Ts65Dn mice),Prehensile reflex (Ts65Dn and control mice [1]; Ts65Dn mice),Righting reflex (Ts65Dn and control mice [1]; Ts65Dn mice),Traction capacity (Ts65Dn and control mice [1]; Ts65Dn mice),Vision (Ts65Dn and control mice [1]; Ts65Dn mice),effect on sensorimotor abilities (Ts65Dn and control mice [1]),Latency arrival coat hanging (Ts65Dn and control mice [1]; control mice),Latency to fall aluminium bar (Ts65Dn and control mice [1]; control mice),Latency to fall wooden bar (Ts65Dn and control mice [1]; control mice),Number of crossings coat hanging (Ts65Dn and control mice [1]; control mice),Auditory startle (Ts65Dn and control mice [1]; control mice),other results
"Cc1onc(-c2ccc(F)cc2)c1COc1ccc(C(=O)N2CCS(=O)(=O)CC2)cn1 [Compound R1, (1,1-Dioxo-1,6-thiomorpholin-4-yl)-{6-[3-(4-fluoro-phenyl)-5-methyl-isoxazol-4-ylmethoxy]-pyridin-3-yl}-methanone]",−4,107,37.37,13.71,20.00,3.19,1.31,1.13,3.19,1.75,2.75,3.00,2.50,9.19,did not modify any of the sensorimotor abilities tested,30.93,11.16,20.00,2.73,1.00,Ki (human GABA A α2β3γ2): 502 nM; Equilibrium aluminium bar (Ts65Dn and control mice [1]; control mice): 0.80; Equilibrium wooden bar (Ts65Dn and control mice [1]; control mice): 2.53; Grip strength (Ts65Dn and control mice [1]; control mice): 2.2; Prehensile reflex (Ts65Dn and control mice [1]; control mice): 2.53; Righting reflex (Ts65Dn and control mice [1]; control mice): 3.00; Traction capacity (Ts65Dn and control mice [1]; control mice): 1.80; Vision (Ts65Dn and control mice [1]; control mice): 8.40; Efficacy GABA A α5β3γ2 (human GABA A α5β3γ2): −39%; difference between Ts65Dn and control learning curves in MWM (Ts65Dn and control mice [2]): reduced; Ts65Dn mice performance in MWM acquisition sessions (Ts65Dn and control mice [2]): improved Ts65Dn mice cognition; control mice performance in MWM acquisition sessions (Ts65Dn and control mice [2]): did not significantly affect control mice performance; latency to reach the platform during cued sessions (Ts65Dn and control mice [2]): reduced the latency to reach the platform
"FC(F)c1ncn2c1Cn1ncnc1-c1cc(Br)ccc1-2 [Compound 8581, 3-Bromo-10-difluoromethyl-9H-imidazo[1,5-a][1,2,4]triazolo[1,5-d][1,4]benzodiazepine]",−1,40,35.44,12.11,17.77,3.33,1.33,1.00,3.55,2.00,2.67,3.00,1.67,7.67,did not modify any of the sensorimotor abilities tested,46.45,14.73,20.00,2.64,1.00,"Ki (human GABA A α2β3γ2; [3H]flumazenil competition, human α2β3γ2, read-out: hKi α2): 185 nM; Equilibrium aluminium bar (Ts65Dn and control mice [1]; control mice): 1.36; Equilibrium wooden bar (Ts65Dn and control mice [1]; control mice): 2.8; Grip strength (Ts65Dn and control mice [1]; control mice): 1.55; Prehensile reflex (Ts65Dn and control mice [1]; control mice): 2.45; Righting reflex (Ts65Dn and control mice [1]; control mice): 3.00; Traction capacity (Ts65Dn and control mice [1]; control mice): 1.82; Vision (Ts65Dn and control mice [1]; control mice): 7.64; Efficacy GABA A α5β3γ2 (human GABA A α5β3γ2): −46%; difference between Ts65Dn and control learning curves in MWM (Ts65Dn and control mice [2]): reduced; Ts65Dn mice performance in MWM acquisition sessions (Ts65Dn and control mice [2]): significantly improved Ts65Dn mice performance; control mice performance in MWM acquisition sessions (Ts65Dn and control mice [2]): did not significantly affect control mice performance; latency to reach the platform during cued sessions (Ts65Dn and control mice [2]): reduced the latency to reach the platform"
